Source: patent US8158605B2, “Azacytidine analogues and uses thereof” (Mount Sinai School of Medicine, priority 2007, dated 2012)

Experiments:
5637 = assay: WST-1 cytotoxicity assay; type: cell-based
Method: (§1) Human promyelocytic leukemia cell lines HL60, human histiocytic lymphoma U937, human chronic myelogenous leukemia K562, human acute T cell Jurkat, breast adenocarcinoma MCF-7, urinary bladder carcinoma 5637, prostate carcinoma DU-145 were purchased from American Type Culture Collection. All cell lines except Jurkat were maintained in RPMI 1640 medium (Gibco, Glasgow, UK) supplemented with 10% heat-inactivated fetal calf serum (FCS), 100 U/ml of penicillin, and […] streptomycin, in an atmosphere of 5% CO2 at 37° C. Jurkat cells were cultured in RPMI 1640 medium supplemented with 1.5 g/L sodium bicarbonate, 4.5 g/L glucose, 10 mM sodium pyruvate, and 10% FCS, 100 U/ml of penicillin, and […] streptomycin.
(§2) MCF-7, DU-145, and 5637 cells (1×10^4/ml) were plated and allowed to adhere and spread for 24 hours. […] Cultures were incubated with WST-1 reagent for 1 hour. The production of formazan was measured by a microplate reader (Bio-Tek Instruments, Elx 800) at 450 nm with a reference wavelength of 650 nm. Growth inhibition was determined as compared to untreated cells (%). IC50 values were calculated using CalcuSyn software (Biosoft).

DU145 = assay: WST-1 cytotoxicity assay; type: cell-based; conditions: Homo sapiens, DU-145
Method: as §1, §2

HL60 = assay: WST-1 cytotoxicity assay; type: cell-based; conditions: Homo sapiens, HL-60
Method: as §1, §2

Jurkat = assay: WST-1 cytotoxicity assay; type: cell-based; conditions: Homo sapiens
Method: as §1, §2

K562 = assay: WST-1 cytotoxicity assay; type: cell-based; conditions: Homo sapiens
Method: as §1, §2

MCF-7 = assay: WST-1 cytotoxicity assay; type: cell-based; conditions: Homo sapiens, MCF7
Method: as §1, §2

U937 = assay: WST-1 cytotoxicity assay; type: cell-based; conditions: Homo sapiens, U-937
Method: as §1, §2

cell cycle = assay: Cell cycle analysis of DNA contents by flow cytometry; type: cell-based
Method: Cells were pelleted by centrifugation, and washed twice with PBS, fixed with 70% (v/v) cold ethanol (−20° C.), and stored at 4° C. for at least 24 hours. The cells were washed in PBS. Cell pellets were stained with PI/RNase staining solution. The cell suspension was incubated in the dark at room temperature for 30 min. DNA content was determined using a FACSCalibur flow cytometry (Becton Dickinson, Mount View, Calif.). Percentages of cells in Sub-G1, G1, S and G2/M stages of the cell cycle were determined with DNA histogram-fitting program (Becton Dickinson). A minimum of 10,000 events per sample was recorded.
Cells were cultured for the indicated lengths of time before being processed for analyses of DNA contents by flow cytometry. Numerical values in a panel represent gated cell population with sub-G1 DNA contents. The most significant changes were observed after 24 hours of treatment.

[1] = tested on: U937, HL60 and K562 cells; assay: Differentiating induction (NBT reduction, benzidine staining); type: cell-based, human; conditions: repeated exposure for 11 (HL60) or 14 (U937, K562) days
Method: Cell differentiation was studied in terms of morphology. […] After initial treatment on day 0, cells were exposed to the new portions of drugs on day 4, 7, and 10. The differentiation was evaluated by NBT reduction assay (U937 and HL60) or by benzidine staining (K562).

[2] = tested on: Hela cervix carcinoma cells; assay: MTT cytotoxicity with or without nucleoside transport inhibitor dipyridamole; type: cell-based
Method: Dipyridamole was used as an inhibitor of the equilibrative nucleoside transporters hENT1 and hENT2. […] The cells were pre-incubated for 24 hours. Dipyridamole (10 μM) was added to the cells 30 minutes prior to the addition of the test compounds. […] Six wells were used per test concentration. The cells were incubated with test compound for 72 hours.

estrogen receptor beta = assay: Gene expression of estrogen receptor β by real-time PCR in MCF-7 cells; type: cell-based; conditions: MCF-7, 1 μM, 5 days
Method: The gene expression (determined on RNA level) of estrogen receptor beta was determined by quantitative real-time PCR. (TaqMan). MCF-7 mammary carcinoma cells were grown in estrogen deficient media (Phenol-Red-free RPMI with 2% glutamine and 10% charcoal-dextran treated fetal calf serum). […] One untreated control was included as control. The cells were harvested after 5 days of exposure to the compounds; they were harvested by trypsination, washed and shock frozen in liquid nitrogen.
The total RNA was extracted from approximately 10^6 shock frozen MCF-7 cells. The RNA concentration and purity was measured, and RNA was transcribed into cDNA using TaqMan Reverse Trancription reagents (N808-0234). Real-time quantification was performed using standard protocols and premixed PCR reagents. The primer-probe mixes were ordered from Applied Biosystems, ER β (ID Hs00230957_ml) and housekeeping gene hydrocylmethyl-bilane synthase HMBS (ID Hs00609297_ml). Gene expression was calculated using the comparative delta-delta Ct method.

CCCCCCCC/C=C/CCCCCCCC(=O)OC[C@H]1O[C@@H](n2cnc(N)nc2=O)[C@H](O)[C@@H]1O [CP, 5-azacytidine 5′-elaidate]
IC50 (5637; 5637, 24 hour treatment): 9.39 µM
IC50 (5637; 5637, 48 hour treatment): 5.95 µM
IC50 (5637; 5637, 72 hour treatment): 3.52 µM
IC50 (DU145; DU145, 24 hour treatment): 6.79 µM
IC50 (DU145; DU145, 48 hour treatment): 6.31 µM
IC50 (DU145; DU145, 72 hour treatment): 5.88 µM
IC50 (HL60; HL60, 24 hour treatment): 3.19 µM
IC50 (HL60; HL60, 48 hour treatment): 3.6 µM
IC50 (HL60; HL60, 72 hour treatment): 2.68 µM
IC50 (Jurkat; 24 hour treatment): 1.19 µM
IC50 (Jurkat; 48 hour treatment): 0.88 µM
IC50 (Jurkat; 72 hour treatment): 0.84 µM
IC50 (K562; K562, 24 hour treatment): 1.26 µM
IC50 (K562; K562, 48 hour treatment): 0.92 µM
IC50 (MCF-7; MCF-7, 24 hour treatment): 19.1 µM
IC50 (MCF-7; MCF-7, 48 hour treatment): 9.32 µM
IC50 (MCF-7; MCF-7, 72 hour treatment): 9.99 µM
IC50 (U937; U937, 24 hour treatment): 0.44 µM
IC50 (U937; U937, 48 hour treatment): 0.6 µM
IC50 (U937; U937, 72 hour treatment): 0.87 µM
% cell G1 (cell cycle; 24 hour, dose 0.5 μM): 43.66%
% cell G2/M (cell cycle; 24 hour, dose 0.5 μM): 11.05%
% cell S (cell cycle; 24 hour, dose 0.5 μM): 28.15%
% cell Sub G1 (cell cycle; 24 hour, dose 0.5 μM): 9.41%
% cell G1 (cell cycle; 24 hour, dose 1 μM): 36.17%
% cell G2/M (cell cycle; 24 hour, dose 1 μM): 8.82%
% cell S (cell cycle; 24 hour, dose 1 μM): 18.98%
% cell Sub G1 (cell cycle; 24 hour, dose 1 μM): 21.02%
% cell G1 (cell cycle; 24 hour, dose 2 μM): 23.45%
% cell G2/M (cell cycle; 24 hour, dose 2 μM): 2.64%
% cell S (cell cycle; 24 hour, dose 2 μM): 9.14%
% cell Sub G1 (cell cycle; 24 hour, dose 2 μM, listed as 5-azacytidine 5′-elaidate): 33.6%
% cell Sub G1 (cell cycle; 24 hour, dose 2 μM, listed as cp): 33.59%
% cell G1 (cell cycle; 48 hour, dose 0.5 μM): 34.79%
% cell G2/M (cell cycle; 48 hour, dose 0.5 μM): 2.53%
% cell S (cell cycle; 48 hour, dose 0.5 μM): 42.96%
% cell Sub G1 (cell cycle; 48 hour, dose 0.5 μM): 15.14%
% cell G1 (cell cycle; 48 hour, dose 1 μM): 28.07%
% cell G2/M (cell cycle; 48 hour, dose 1 μM): 17.91%
% cell S (cell cycle; 48 hour, dose 1 μM): 30.06%
% cell Sub G1 (cell cycle; 48 hour, dose 1 μM): 14.34%
% cell G1 (cell cycle; 48 hour, dose 2 μM): 22.51%
% cell G2/M (cell cycle; 48 hour, dose 2 μM): 7.78%
% cell S (cell cycle; 48 hour, dose 2 μM): 15.62%
% cell Sub G1 (cell cycle; 48 hour, dose 2 μM): 24.34%
% cell G1 (cell cycle; 72 hour, dose 0.5 μM): 38.72%
% cell G2/M (cell cycle; 72 hour, dose 0.5 μM): 18.82%
% cell S (cell cycle; 72 hour, dose 0.5 μM): 29.18%
% cell Sub G1 (cell cycle; 72 hour, dose 0.5 μM): 10.54%
% cell G1 (cell cycle; 72 hour, dose 1 μM): 40.67%
% cell G2/M (cell cycle; 72 hour, dose 1 μM): 18.26%
% cell S (cell cycle; 72 hour, dose 1 μM): 28.77%
% cell Sub G1 (cell cycle; 72 hour, dose 1 μM): 10.75%
differentiation induction [1]: did not induce significant differentiation
cytotoxic activity increased when hENT1 and hENT2 blocked by dipyridamole ([2]; Hela, with vs without dipyridamole): 50 fold
IC50 ([2]; Homo sapiens, HeLa, 72 h, Hela with dipyridamole (10 μM), MTT): 0.23 µM
Ct ER β (estrogen receptor beta): 32.97
delta (estrogen receptor beta): 7.06
Delta delta (estrogen receptor beta; versus untreated): −2.40
